Values joined by “and” are separate entries in the source; they are usually repeats but may differ in a detail not shown here. Identical values can stand only once. Inconclusive results and toxic doses are left out. Rule for the calls: active = survival T/C of 150% or more; inactive = T/C below 125% in these data.
Test system: CD2F1 mice, L1210 leukemia ip, survival T/C
Assay: NCI In Vivo Anticancer Drug Screen. Data for tumor model L1210 Leukemia (intraperitoneal) in CD2F1 (CDF1) mice
Conditions: higher = longer survival
Summary of the method: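 Compound-dosed mice with transplantable tumor versus matched vehicle controls; endpoint ratio T/C reported.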

[1] = endpoint: mean survival time, dose: 12.5 mg/kg/injection, schedule: Q01DX009 (ip), vehicle: saline with Tween-80
[2] = endpoint: mean survival time, dose: 25.0 mg/kg/injection, schedule: Q01DX009 (ip), vehicle: saline with Tween-80
[3] = endpoint: mean survival time, dose: 100.0 mg/kg/injection, schedule: Q01DX001 (ip), vehicle: saline with Tween-80
[4] = endpoint: mean survival time, dose: 200.0 mg/kg/injection, schedule: Q01DX001 (ip), vehicle: saline with Tween-80
[5] = endpoint: mean survival time, dose: 400.0 mg/kg/injection, schedule: Q01DX001 (ip), vehicle: saline with Tween-80
[6] = endpoint: mean survival time, dose: 100.0 mg/kg/injection, schedule: Q01DX001 (ip), vehicle: saline
[7] = endpoint: mean survival time, dose: 200.0 mg/kg/injection, schedule: Q01DX001 (ip), vehicle: saline
[8] = endpoint: mean survival time, dose: 400.0 mg/kg/injection, schedule: Q01DX001 (ip), vehicle: saline
[9] = endpoint: mean survival time, dose: 50.0 mg/kg/injection, schedule: Q01DX009 (ip), vehicle: saline with Tween-80
[10] = endpoint: mean survival time, dose: 100.0 mg/kg/injection, schedule: Q01DX009 (ip), vehicle: saline with Tween-80
[11] = endpoint: mean survival time, dose: 200.0 mg/kg/injection, schedule: Q01DX009 (ip), vehicle: saline with Tween-80
[12] = endpoint: mean survival time, dose: 100.0 mg/kg/injection, schedule: Q04DX003 (ip), vehicle: saline
[13] = endpoint: mean survival time, dose: 200.0 mg/kg/injection, schedule: Q04DX003 (ip), vehicle: saline
[14] = endpoint: mean survival time, dose: 100.0 mg/kg/injection, schedule: Q01DX009 (ip), vehicle: Klucel (hydroxypropylcellulose) (HPC)
[15] = endpoint: mean survival time, dose: 200.0 mg/kg/injection, schedule: Q01DX009 (ip), vehicle: Klucel (hydroxypropylcellulose) (HPC)
[16] = endpoint: mean survival time, dose: 400.0 mg/kg/injection, schedule: Q01DX009 (ip), vehicle: Klucel (hydroxypropylcellulose) (HPC)
[17] = endpoint: mean survival time, dose: 100.0 mg/kg/injection, schedule: Q04DX002 (ip), vehicle: saline with Tween-80
[18] = endpoint: mean survival time, dose: 200.0 mg/kg/injection, schedule: Q04DX002 (ip), vehicle: saline with Tween-80
[19] = endpoint: mean survival time, dose: 400.0 mg/kg/injection, schedule: Q04DX002 (ip), vehicle: saline with Tween-80
[20] = endpoint: mean survival time, dose: 100.0 mg/kg/injection, schedule: Q04DX003 (ip), vehicle: saline with Tween-80
[21] = endpoint: mean survival time, dose: 200.0 mg/kg/injection, schedule: Q04DX003 (ip), vehicle: saline with Tween-80
[22] = endpoint: mean survival time, dose: 400.0 mg/kg/injection, schedule: Q04DX003 (ip), vehicle: saline with Tween-80
[23] = endpoint: mean survival time, dose: 400.0 mg/kg/injection, schedule: Q01DX009 (ip), vehicle: saline with Tween-80

Measured: T/C

CN(C)CCN1C(=O)c2cccc3cc([N+](=O)[O-])cc(c23)C1=O
inactive: endpoint: mean survival time, dose: 0.75 mg/kg/injection, schedule: Q01DX009 (ip), vehicle: saline with Tween-80 100 % of control and 106 % of control | endpoint: mean survival time, dose: 1.5 mg/kg/injection, schedule: Q01DX009 (ip), vehicle: saline with Tween-80 115 % of control and 107 % of control | endpoint: mean survival time, dose: 1.5 mg/kg/injection, schedule: Q01DX009 (ip), vehicle: saline 102 % of control | endpoint: mean survival time, dose: 3.0 mg/kg/injection, schedule: Q01DX009 (ip), vehicle: saline with Tween-80 113 % of control | endpoint: mean survival time, dose: 3.0 mg/kg/injection, schedule: Q01DX009 (ip), vehicle: saline 107 % of control | endpoint: mean survival time, dose: 6.0 mg/kg/injection, schedule: Q01DX009 (ip), vehicle: saline 109 % of control | endpoint: mean survival time, dose: 12.0 mg/kg/injection, schedule: Q01DX009 (ip), vehicle: saline with Tween-80 120 % of control | endpoint: mean survival time, dose: 12.0 mg/kg/injection, schedule: Q01DX009 (ip), vehicle: saline 117 % of control | endpoint: median survival time, dose: 0.37 mg/kg/injection, schedule: Q01DX009 (ip), vehicle: saline with Tween-80 100 % of control | endpoint: median survival time, dose: 0.75 mg/kg/injection, schedule: Q01DX009 (ip), vehicle: saline with Tween-80 95 % of control and 105 % of control | endpoint: median survival time, dose: 1.5 mg/kg/injection, schedule: Q01DX009 (ip), vehicle: saline with Tween-80 116 % of control and 98 % of control | endpoint: median survival time, dose: 3.0 mg/kg/injection, schedule: Q01DX009 (ip), vehicle: saline with Tween-80 104 % of control and 110 % of control | endpoint: median survival time, dose: 6.0 mg/kg/injection, schedule: Q01DX009 (ip), vehicle: saline with Tween-80 122 % of control | endpoint: median survival time, dose: 12.0 mg/kg/injection, schedule: Q01DX009 (ip), vehicle: saline with Tween-80 122 % of control

COc1cccc2c1C(=O)C1=C(C2=O)c2c(O)cc(CO)cc2C(O)C1O (stereo unspecified)
inactive: endpoint: median survival time, dose: 3.12 mg/kg/injection, schedule: Q01DX005 (ip), vehicle: other 101 % of control | endpoint: median survival time, dose: 6.25 mg/kg/injection, schedule: Q01DX005 (ip), vehicle: other 105 % of control | endpoint: median survival time, dose: 12.5 mg/kg/injection, schedule: Q01DX005 (ip), vehicle: other 103 % of control | endpoint: median survival time, dose: 25.0 mg/kg/injection, schedule: Q01DX005 (ip), vehicle: other 109 % of control | endpoint: median survival time, dose: 50.0 mg/kg/injection, schedule: Q01DX005 (ip), vehicle: other 119 % of control

COc1cc(N)ccc1NC(=O)c1ccccc1
inactive: endpoint: mean survival time, dose: 6.25 mg/kg/injection, schedule: Q01DX009 (ip), vehicle: saline with Tween-80 94 % of control | [1] 94 % of control and 100 % of control | [2] 93 % of control and 105 % of control

O=C1O/C(=C\c2ccccc2)c2c(-c3ccccc3)ccc(-c3ccccc3)c21
inactive: [3] 95 % of control | [4] 95 % of control | [5] 95 % of control

O=CNc1ccc2c(c1)C(O)c1ccccc1-2 (stereo unspecified)
inactive: endpoint: mean survival time, dose: 62.5 mg/kg/injection, schedule: Q04DX003 (ip), vehicle: saline with Tween-80 103 % of control | endpoint: mean survival time, dose: 125.0 mg/kg/injection, schedule: Q04DX003 (ip), vehicle: saline with Tween-80 98 % of control | endpoint: mean survival time, dose: 250.0 mg/kg/injection, schedule: Q04DX003 (ip), vehicle: saline with Tween-80 97 % of control

Cc1cc2cc3c(=O)[nH]c(=O)nc-3n(CC(O)C(O)C(O)CO)c2cc1C (stereo unspecified)
inactive: [6] 103 % of control | [7] 107 % of control | [8] 98 % of control

CC1CCCN(CCSSCCN2CCCC(C)C2)C1 (stereo unspecified)
inactive: [1] 104 % of control | endpoint: mean survival time, dose: 12.5 mg/kg/injection, schedule: Q04DX003 (ip), vehicle: saline sonified 97 % of control | [2] 96 % of control | endpoint: mean survival time, dose: 25.0 mg/kg/injection, schedule: Q04DX003 (ip), vehicle: saline sonified 98 % of control | [9] 95 % of control | endpoint: mean survival time, dose: 50.0 mg/kg/injection, schedule: Q04DX003 (ip), vehicle: saline sonified 103 % of control

CN(C)/N=C/c1cccc(CC(O)(C(F)(F)F)C(F)(F)F)n1
inactive: [9] 94 % of control | [3] 105 % of control | [10] 96 % of control | [4] 100 % of control | [11] 97 % of control

N=C(N)SCCCSC(=N)N
inactive: [2] 101 % of control | [9] 96 % of control | endpoint: mean survival time, dose: 50.0 mg/kg/injection, schedule: Q04DX003 (ip), vehicle: saline 98 % of control | [10] 90 % of control | [12] 104 % of control | [13] 102 % of control

CC(=O)OC1C(OC(C)=O)C(OC(C)=O)C(OS(C)(=O)=O)C(OC(=O)c2ccccc2)C1OC(C)=O (stereo unspecified)
inactive: [14] 96 % of control | [15] 86 % of control | [16] 91 % of control

Cc1cccc(Cl)c1NC(=O)/C=C/c1ccccc1
inactive: [17] 87 % of control | [18] 94 % of control | [19] 105 % of control

COC(=O)C(C)NC(=O)CCNC(=O)OCc1ccccc1 (stereo unspecified)
inactive: [20] 93 % of control | [21] 93 % of control | [22] 90 % of control

CSc1nc(Cl)cc(/N=C/N(C)C)n1
inactive: [10] 102 % of control | [11] 98 % of control

O=[N+]([O-])c1ccc(C(Cl)S(=O)(=O)c2ccccc2)cc1 (stereo unspecified)
inactive: [14] 98 % of control | [15] 92 % of control | [16] 110 % of control

CCC1(C)CCC2=C(CCC3C(C)(C(=O)O)CCCC23C)C1 (stereo unspecified)
inactive: [3] 96 % of control | [10] 93 % of control | [4] 91 % of control | [11] 91 % of control | [5] 96 % of control

O=C1OC2CCC13CCCCC3C2 (stereo unspecified)
inactive: [20] 96 % of control | [21] 88 % of control | [22] 86 % of control

CCOC(=O)Nc1cccc(F)c1C
inactive: [17] 105 % of control | [18] 109 % of control | [19] 94 % of control

COc1nc(C(Cl)(Cl)Cl)c(Cl)c(OC)c1Cl
inactive: endpoint: median survival time, dose: 12.5 mg/kg/injection, schedule: Q01DX009 (ip), vehicle: Klucel (hydroxypropylcellulose) (HPC) 108 % of control | endpoint: median survival time, dose: 25.0 mg/kg/injection, schedule: Q01DX009 (ip), vehicle: Klucel (hydroxypropylcellulose) (HPC) 98 % of control and 103 % of control | endpoint: median survival time, dose: 50.0 mg/kg/injection, schedule: Q01DX005 (ip), vehicle: Klucel (hydroxypropylcellulose) (HPC) 105 % of control and 112 % of control | endpoint: median survival time, dose: 50.0 mg/kg/injection, schedule: Q01DX009 (ip), vehicle: Klucel (hydroxypropylcellulose) (HPC) 106 % of control and 107 % of control | endpoint: median survival time, dose: 67.0 mg/kg/injection, schedule: Q01DX005 (ip), vehicle: Klucel (hydroxypropylcellulose) (HPC) 119 % of control and 102 % of control | endpoint: median survival time, dose: 90.0 mg/kg/injection, schedule: Q01DX005 (ip), vehicle: Klucel (hydroxypropylcellulose) (HPC) 105 % of control | endpoint: median survival time, dose: 120.0 mg/kg/injection, schedule: Q01DX005 (ip), vehicle: Klucel (hydroxypropylcellulose) (HPC) 113 % of control | endpoint: median survival time, dose: 200.0 mg/kg/injection, schedule: Q01DX009 (ip), vehicle: Klucel (hydroxypropylcellulose) (HPC) 115 % of control and 120 % of control

CCCC(=O)OCc1ccc(Cl)cc1Cl
inactive: [10] 96 % of control | [20] 91 % of control | [11] 98 % of control | [21] 89 % of control | [23] 98 % of control | [22] 96 % of control

Cc1ccc(CNc2ccc(I)cc2)cc1
inactive: [20] 93 % of control | [21] 88 % of control | [22] 86 % of control

CC1(c2ccccc2)CCc2ccccc21 (stereo unspecified)
inactive: [10] 97 % of control | [11] 95 % of control | [23] 95 % of control

C=C1C2C(c3ccccc3)=CC(C1(C)C(Cl)Cl)C(C#N)(C#N)C2(C#N)C#N (stereo unspecified)
inactive: endpoint: mean survival time, dose: 50.0 mg/kg/injection, schedule: Q04DX002 (ip), vehicle: saline with Tween-80 96 % of control | [17] 108 % of control | [18] 100 % of control

Cc1ccc(S(=O)(=O)/C=C/c2ccccc2)cc1
inactive: [6] 103 % of control | [12] 96 % of control | [7] 108 % of control | [13] 93 % of control | [8] 100 % of control | endpoint: mean survival time, dose: 400.0 mg/kg/injection, schedule: Q04DX003 (ip), vehicle: saline 87 % of control

O=P(Oc1ccccc1)(c1ccccc1)c1ccccc1
inactive: [20] 109 % of control | [21] 95 % of control | [22] 109 % of control

COc1ccc(C2(C)N=NC(=C(c3ccccc3)c3ccccc3)O2)cc1 (stereo unspecified)
inactive: [10] 97 % of control | [20] 91 % of control | [11] 86 % of control | [21] 91 % of control | [23] 86 % of control | [22] 93 % of control
